Results on one compound are retold here after patent publication EP1857440A1, “Novel compounds, isomer thereof, or pharmaceutically acceptable salts thereof as vanilloid receptor antagonist; and pharmaceutical compositions containing the same” (Amorepacific Corporation, priority 2006, dated 2007).

Each structure is given as a SMILES string.

In general, IC50 refers to the concentration that gives 50% inhibition.

In one test the test system is Male ICR mice. The test is described as follows: Analgesic activity test: mouse writhing test induced with phenyl-p-quinone. The conditions noted are these: ip, 0.5 h, Dose 10 mg/kg intraperitoneally, 30 min before phenyl-p-quinone, read-out: Analgesic effect (%Inhibition). The format is in vivo. As for the experimental part: 2. Analgesic activity test: Mouse writhing test by inducing with phenyl-p-quinone
Male ICR mice (mean body weight 25g) were maintained in a controlled lighting environment (12 h on/ 12 h off) for experiment. Animals received an intraperitoneal injection of 0.3ml of the chemical irritant phenyl-p-quinone (dissolved in saline containing 5% ethanol to be a dose of 4.5mg/kg) and 6 mins later, the number of abdominal constrictions was counted in the subsequent 6 mins period. Animals (10 animals/group) received 0.2ml of test compounds solution in vehicle of ethanol/Tween 80/saline (10/10/80) intraperitoneally 30 min before the injection of phenyl-p-quinone. A reduction in the number of writhes responding to the test drug compound relative to the number responding in saline control group was considered to be indicative of an analgesic effect. Analgesic effect was calculated by % inhibition equation (% inhibition=(C-T)/C x 100), wherein C and T represent the number of writhes in control and compound-treated group, respectively (Table 2).
For orientation: In writhing tests, fewer writhes than in controls are read as antinociception.

A further test addresses T1, vanilloid receptor (Rattus norvegicus, UniProt O35433).
T1 construct: DRG nerve cells from the primary culture of 2 days were equilibrated by washing 4 times; endogenous in cells; host or cells: primary culture of dorsal root ganglion (DRG) neurons from neonatal SD rats
The test is described as follows: 45Ca influx test (calcium uptake) in primary cultured neonatal rat DRG neurons, capsaicin-stimulated. Format: cell-based, SD rats. The settings on record: capsaicin 0.5 µM, 45Ca 10 µCi/ml, 10 mins at room temperature, read-out: Antagonist Calcium Uptake Test (IC50). The procedure: 1) Separation of spinal dorsal root ganglia (DRG) in newborn rats and primary culture thereof
Neonatal (2-3 day old or younger than 2-3 day old) SD rats were put in ice for 5 minutes to anesthetize and disinfected with 70% ethanol. DRG of all part of spinal cord were dissected (Wood et al., 1988, J. Neurosci. 8, pp3208-3220) and collected in DME/F12 medium to which 1.2g/l sodium bicarbonate, 50mg/l gentamycin were added. The DRG were incubated sequentially at 37°C for 30 min in 200 U/ml collagenase and 2.5mg/ml trypsin, separately. The gangiia were washed twice with DME/F12 medium supplemented with 10% horse serum, triturated through a fire-polished Pasteur pipette, filtered through Nitex 80 membrane to obtain single cell suspension and the suspension was washed once more. This was subjected to centrifugation, then resuspended in cell culture medium at certain level of cell density. As the cell culture medium, DME/F12 medium supplemented with 10% horse serum was diluted with identical medium conditioned by C6 glioma cells 2 days on a confluent monolayer (1:1), and NGF (Nerve Growth Factor) was added to adjust 200ng/ml as final concentration. After the cells were grown 2 days in medium where cytosine arabinoside (Ara-C, 100 µM) was added to kill dividing nonneuronal cells, medium was changed to one without Ara-C. The resuspended cells were plated at a density of 1500-2000 neurons/well onto Terasaki plates previously coated with 10 µg/ml poly-D-ornithine.
2) ^45 Ca influx experiments
DRG nerve cells from the primary culture of 2 days were equilibrated by washing 4 times with HEPES (10mM, pH 7.4)-buffered Ca ^2+, Mg^2+-free HBSS (H-HBSS). The solution in each well was removed from the individual well. Medium containing the test compound plus capsaicin (final concentration 0.5 µM) and ^45Ca (final concentration 10 µCi/ml) in H-HBSS was added to each well and incubated at room temperature for 10 mins. Terasaki plates were washed five times with H-HBSS and dried at room temperature. To each well, 0.3% SDS (10 µl) was added to elute ^45Ca. After the addition of scintillation cocktail of into each well, the amount of ^45Ca influx into neuron was measured by counting radioactivity. […] [Table 1] Results of Calcium Influx Test

T1 sequence (O35433 whole entry): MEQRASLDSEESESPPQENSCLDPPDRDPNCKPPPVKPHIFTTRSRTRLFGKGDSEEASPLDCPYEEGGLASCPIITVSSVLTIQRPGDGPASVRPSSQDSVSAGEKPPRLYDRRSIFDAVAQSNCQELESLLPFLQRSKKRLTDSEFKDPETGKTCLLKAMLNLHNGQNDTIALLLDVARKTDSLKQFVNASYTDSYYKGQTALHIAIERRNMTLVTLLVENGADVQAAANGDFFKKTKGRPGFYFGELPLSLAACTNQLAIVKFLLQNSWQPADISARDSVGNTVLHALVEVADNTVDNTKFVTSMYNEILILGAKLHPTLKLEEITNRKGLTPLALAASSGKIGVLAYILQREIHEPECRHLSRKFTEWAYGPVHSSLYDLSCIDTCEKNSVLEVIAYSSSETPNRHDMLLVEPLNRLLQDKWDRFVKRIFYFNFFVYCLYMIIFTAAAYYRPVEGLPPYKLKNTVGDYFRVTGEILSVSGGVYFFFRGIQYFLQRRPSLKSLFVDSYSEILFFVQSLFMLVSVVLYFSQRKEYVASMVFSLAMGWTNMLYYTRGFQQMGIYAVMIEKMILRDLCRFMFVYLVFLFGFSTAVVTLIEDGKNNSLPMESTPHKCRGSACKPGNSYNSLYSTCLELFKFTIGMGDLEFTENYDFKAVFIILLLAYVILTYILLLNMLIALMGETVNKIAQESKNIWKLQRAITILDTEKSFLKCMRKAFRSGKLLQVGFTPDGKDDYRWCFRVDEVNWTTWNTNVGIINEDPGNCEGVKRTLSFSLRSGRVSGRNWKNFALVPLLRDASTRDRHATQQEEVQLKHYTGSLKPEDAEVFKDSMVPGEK

Consider `CS(=O)(=O)Nc1ccc(CNC(=O)COc2ccc(C(F)(F)F)cc2)cc1F` [Example 24, N-(3-Fluoro-4-methanesulfonylamino-benzyl)-2-(4-trifluoromethylphenoxy)-acetamide], for which, in the test on Male ICR mice, the inhibition in vivo at 10 mg/kg worked out at 28%. Moreover, the IC50 on vanilloid receptor was 1300 nM.
